Test results reported in patent US5238838A (Degussa Aktiengesellschaft, priority 1991, dated 1993).
“Also recorded” adds a separate entry of the source.

Key:
[1] = tested on: carnitine amidase (raw extract of strain DSM 6230); experiment: Activity test of the raw extract of strain DSM 6230 with enantiomerically pure D- and L-carnitine amide; format: biochemical; conditions: for Activity (mU/mg) / Activity (mU/ml): raw extract of strain DSM 6230, labelled amide as substrate, 50 mM, 30° C.
Procedure: After 3 days, the contents of the shaking flasks were centrifuged (10 min., 10000 rpms in a refrigerated centrifuge), and the sedimentated cells were taken up in 100 mM potassium phosphate buffer pH 7.5 (an approximately 20% microorganism suspension was produced).
The microorganisms in this suspension must be macerated in the customary manner (e.g. agitation with fine glass beads or ultrasound treatment). The cell maceration was carried out by means of wet grinding with glass beads (diameter 0.3 mm; 2 g beads per 1 ml cell suspension). The glass beads and the coarse cell fragments were centrifuged off by means of centrifugation in a refrigerated centrifuge (5 min. 12000 rpms). The clear supernatant was designated as raw extract and used for further experiments.
The materials for the activity test contained:
400 μl potassium phosphate buffer 0.1 M, pH 7.5
50 μl substrate in 0.1 M potassium phosphate buffer, pH 7.5
50 μl enzyme solution (raw extract)
The following were used as substrates:
a) DL-carnitine amide final concentration in the test 100 mM
b) D-carnitine amide final concentration in the test 50 mM c) L-carnitine amide final concentration in the test 50 mM
The enzyme test was carried out in 1.5 ml Eppendorf vessels at a temperature of 30° C. The reaction was started by the addition of enzyme solution and stopped by acidification. The precipitated protein was centrifuged off (Eppendorf centrifuge 5 min. 12500 rpms) and the supernatant examined. In order to determine the blank reading, a control specimen for the substrate and the enzyme solution was always used.
The definition of the enzyme unit is 1 mU=1 nM converted substrate per minute.
L-carnitine can be determined enzymatically with the carnitine acetyl transferase. The ammonia was determined on the one hand photometrically as indophenol and on the other hand enzymatically with the aid of glutamate dehydrogenase.
The raw extract of this strain was tested with enantiomerically pure D- and L-carnitine amide:
The raw extract was retested for D- and L-carnitine amide and the enzyme test was stopped after 10 min. (there is still sufficient L-carnitine amide in the test batch) and after 5 hours (the L-carnitine amide has reacted to a great extent or completely). The L-amidase activity, relative to the total amidase activity, was 100% after 10 min. and still over 99% after 5 hours.

strain DSM 6230 = experiment: Growth of strain DSM 6230 on the test substances (OD660); format: cell-based; conditions: for OD660: 5 g/l of the substance in minimum medium with 1.0 g/l yeast extract, 36 h, 30° C.; for Growth of the strain on the substance (in words): strain DSM 6230
Procedure: 1367 strains were isolated during the screening program. These strains were incubated in 100 ml Erlenmeyer flasks containing 20 ml of the particular enrichment medium in a rotary agitator at 30° C. and 120 rpms. The optical density at 660 nm was taken as an indication for the cell growth.
(§1) In this test, various substances were examined for their induction action. At the same time, the growth on these compounds was followed. The medium used was a minimum medium with 1.0 g/l instead of 0.5 g/l yeast extract, to which 5 g/l of the substance to be tested were added in each instance. The culture without inductor contained 5 g/l yeast extract. All tests were carried out with 20 ml shaking cultures which were incubated 36 h at 30° C. and 120 rpms in a rotating [round]shaking machine. These cultures were inoculated with 1% of an initial culture of strain DSM 6230. L-carnitine amide was used as substrate for the enzyme test.
(§2) At the same time, the growth of the bacteria was followed in these carnitine amide concentrations. The culture conditions corresponded to those in example 3.

L-carnitine amidase [2] = experiment: Substrate spectrum of L-carnitine amidase; format: biochemical, strain DSM 6230; conditions: for Rel. activity (%): substrate 50 mM, 30° C., 100 mM potassium phosphate buffer pH 8
Procedure: The enzyme test was carried out at 30° C. in 100 mM potassium phosphate buffer pH 8. The substrate concentration was 50 mM.

L-carnitine amidase [3] = experiment: Test for the induction of L-carnitine amidase; format: cell-based, strain DSM 6230; conditions: for Activity (mU/mg) / Activity (mU/ml): 5 g/l of the substance as inductor, 36 h, L-carnitine amide as substrate; for Induction of L-carnitine amidase (in words): strain DSM 6230
Procedure: as §1, §2

[4] = tested on: 20% cell suspension of the strain DSM 6230; experiment: Conversion with whole cells; format: cell-based
Excerpt: The conversion with whole cells was examined by carrying out the customary enzyme test with a 20% cell suspension of the strain DSM 6230. Result: L-carnitine amide is converted by whole cells with 64% greater activity than by a macerated cell suspension of the same concentration. D-carnitine is not converted. It is therefore to be expected that the conversion of L-carnitine amide to L-carnitine can also be carried out very well by means of immobilized microorganisms. […] Suitable microorganism immobilizates are immobilizates based on alginate or chitosan.

SMILES | Activity (mU/mg) [1] [mU/mg] | Activity (mU/ml) [1] [mU/ml] | OD660 (strain DSM 6230) | Hydrolysis / conversion by L-carnitine amidase (in words) (L-carnitine amidase [2]) | Rel. activity (%) (L-carnitine amidase [2]) | Activity (mU/mg) (L-carnitine amidase [3]) | Activity (mU/ml) (L-carnitine amidase [3]) | Conversion by whole cells (in words) [4] | Growth of the strain on the substance (in words) (strain DSM 6230) | Induction of L-carnitine amidase (in words) (L-carnitine amidase [3]) | Activity of whole cells, greater than that of a macerated cell suspension of the same concentration [4] [%] | L-amidase activity, relative to the total amidase activity ([1]; raw extract, enzyme test stopped after 10 min.) [%] | L-amidase activity, relative to the total amidase activity ([1]; raw extract, enzyme test stopped after 5 hours) | L-amidase activity (%) ([1]; raw extract, relative to total amidase activity)
C[N+](C)(C)C[C@@H](O)CC(N)=O [D-carnitine amide] | 0 | 0 | 0.8 | does not hydrolyze | 0 | 166 | 497 |  |  |  |  |  |  | 
C[N+](C)(C)C[C@@H](O)CC#N [D-carnitine nitrile] |  |  | 0.8 |  | 0 | 90 | 206 |  |  |  |  |  |  | 
C[N+](C)(C)C[C@@H](O)CC(=O)[O-] [D-carnitine] |  |  |  |  |  |  |  | not converted |  |  |  |  |  | 
NCC(N)=O [Glycine amide] |  |  | 1.0 |  | 0 | 43 | 180 |  | good growth substrates | not induced |  |  |  | 
CC(C)C(N)=O [Isobutyramide] |  |  | 1.1 |  | 0 | 41 | 193 |  |  |  |  |  |  | 
C[N+](C)(C)C[C@H](O)CC(N)=O [L-carnitine amide] | 1960 | 8624 | 3.5 | hydrolyzes | 100 | 1706 | 8530 |  | Good growth | induced; also recorded: best of the inductors tested | 64 | 100 | over 99% | 100
C[N+](C)(C)C[C@H](O)CC#N [L-carnitine nitrile] |  |  | 0.8 |  | 0 | 65 | 183 |  |  |  |  |  |  | 
CC(C)C[C@H](N)C(N)=O [L-leucine amide] |  |  | 2.5 |  | 0 | 9 | 34 |  | Good growth | not induced |  |  |  | 
NC(=O)[C@@H](N)Cc1ccccc1 [L-phenylalanine amide] |  |  | 0.6 |  | 0 | 72 | 172 |  |  |  |  |  |  | 
NC(=O)[C@@H]1CCCN1 [L-proline amide] |  |  | 1.0 |  | 0 | 54 | 250 |  |  |  |  |  |  | 
CC(C)[C@H](N)C(N)=O [L-valine amide] |  |  | 0.9 |  | 0 | 12 | 32 |  |  |  |  |  |  | 
CC(O)C(N)=O (stereo not drawn) [Lactic acid amide] |  |  | 0.8 |  | 0 | 28 | 55 |  |  |  |  |  |  | 
C=C(C)C(N)=O [Methacrylamide] |  |  | 0.8 |  | 0 | 76 | 237 |  |  |  |  |  |  | 
CCC(N)=O [Propionamide] |  |  | 1.1 |  | 0 | 29 | 129 |  |  |  |  |  |  | 
